According to patent publication US7033810B2, “Sitosterolemia susceptibility gene (SSG): compositions and methods of use” (Amgen Inc., priority 2000, dated 2006):

What was measured:
[1] = tested on: EST clone AA237916 (murine SSG); test: GEM analysis, EST clone AA237916; assay type: in vivo, C57BL/6 mouse
Experimental: Total RNA was prepared from untreated (control) and treated (50 mg/kg of LXRα agonist Compound A) C57BL/6 mouse liver, intestine and kidney. Control and treated RNA samples were used to generate separate pools of unique, fluorescently labeled cDNA probes (performed at Incyte Genomics Inc.). Each (two fluorescent probe) tissue sample was simultaneously applied to a single Incyte Mouse GEM™ 1 microarray where they were competitively reacted with the arrayed cDNA molecules (containing 8,734 cDNA elements). The intensity of the fluorescence at each array element is proportional to the expression level of that particular gene in the sample. Each element of the GEM™ microarray was scanned for the first fluorescent color, and then repeated for the second fluorescent label. The ratio of the two fluorescent intensities provided a quantitative measurement of the relative gene expression level in the two samples. […] A portion of that composite is shown in Table 2, which lists genes having the highest relative expression levels in the treated intestine and their corresponding relative expression levels in liver and kidney. […] One EST in particular, corresponding to Accession Number AA237916, and shown in the first row of Table 2, was selected for further analysis, in part based on its similarity to the Drosophila Brown protein, a member of the ABC superfamily. […]

apolipoprotein AI mRNA = test: Northern blot of apolipoprotein AI mRNA in tissues of treated mice; assay type: in vivo, C57BL/6 mouse; conditions: liver, intestine and kidney; 0, 1, 5 and 50 mg/kg
Experimental: (§1) Total RNA was prepared from untreated (control) and treated (0, 1, 5 and 50 mg/kg of LXRa agonist Compound A) C57BL/6 mouse liver, intestine and kidney. RNA was electrophoresed on 1.2% agarose/formaldehyde gels, transferred to nylon membrane (Ambion, Bright Star), hybridized to ^32P-labeled murine ABC-1, apolipoprotein AI, and GAPDH cDNA probes, washed and subjected to autoradiography.

ABC1 mRNA = test: Northern blot of ABC1 mRNA in tissues of treated mice; assay type: in vivo, C57BL/6 mouse; conditions: 0, 1, 5 and 50 mg/kg
Experimental: as §1

Caco-2 cells = test: [3H]-cholesterol efflux from Caco-2 cells; assay type: cell-based, human; conditions: 1 μM, 24 h treatment; efflux media with apolipoprotein AI 10 ug/ml; 8 and 24 hour time points
Experimental: Caco2 cells (an adenocarcinoma cell line derived from human colon) were plated in 6 well plates at 50-60% confluence and allowed to adhere overnight in DMEM containing 10% FBS, non-essential amino acids, and Pen/Strep. On the second day, cells were labeled for 24 h with [^3H]-cholesterol (0.5 μCi/ml in DMEM and 1% BSA, Pen/Strep). Cells were washed (2×) with PBS and DMEM (1% BSA) with or without the addition of Compound A (1 μM final concentration). After 24 h treatment, cells were washed (2× with PBS) and efflux media was added containing purified apolipoprotein AI (10 ug/ml). Cells and media were harvested at 8 and 24 hour time points. Cells were washed 3× with PBS, and lysed with 300 μl of 0.5 M NaOH. Radioactivity in media and cell lysates were scintillation counted and normalized to cell protein (using BioRad Lowry Kit). Efflux data shown in is presented as CPM (media)/mg cell protein (FIG. 4).

GAPDH mRNA = test: Northern blot of GAPDH mRNA in tissues of treated mice; assay type: in vivo, C57BL/6 mouse; conditions: liver, intestine and kidney; 0, 1, 5 and 50 mg/kg
Experimental: as §1

SSG mRNA = test: Northern blot of SSG mRNA in tissues of treated mice; assay type: in vivo, C57BL/6 mouse; conditions: 0, 1, 5 and 50 mg/kg
Experimental: as §1, with “SSG” for “ABC-1, apolipoprotein AI, and GAPDH”, “probe,” for “probes,”

human ABC1 = test: Northern blot, ABC1 expression in Caco-2 cells; assay type: cell-based; conditions: Human Caco-2 cells
Experimental: (§2) Human Caco-2 cells were treated with Compounds B and C. Northern blot analysis was performed (essentially as described above) using human ABC1 and ABC8 cDNA probes.

human ABC8 = test: Northern blot, ABC8 expression in Caco-2 cells; assay type: cell-based; conditions: Human Caco-2 cells
Experimental: as §2

SMILES | induction of EST clone AA237916 (murine SSG) ([1]; intestine of treated mice) | induction of EST clone AA237916 (murine SSG) ([1]; liver of treated mice) | apolipoprotein AI mRNA levels (apolipoprotein AI mRNA) | ABC1 mRNA (ABC1 mRNA; intestine) | ABC1 mRNA (ABC1 mRNA; kidney) | ABC1 mRNA (ABC1 mRNA; liver) | cholesterol efflux (Caco-2 cells) | GAPDH mRNA levels (GAPDH mRNA) | SSG expression (mRNA, Northern blot) (SSG mRNA; intestine) | SSG expression (mRNA, Northern blot) (SSG mRNA; liver) | human ABC1 expression (Northern blot) (human ABC1) | human ABC8 expression (Northern blot) (human ABC8)
O=S(=O)(c1ccccc1)N(CC(F)(F)F)c1ccc(C(O)(C(F)(F)F)C(F)(F)F)cc1 [Compound A] | 2.5 fold | 2.4 fold | no measurable difference | Dose dependent increases | Dose dependent increases | Dose dependent increases | Stimulates Cholesterol Efflux | no measurable difference | induced | induced | – | –
CC(c1ccco1)N(C(=O)C12CC3CC(CC(C3)C1)C2)c1ccccn1 (centres unmarked) [C] | – | – | – | – | – | – | – | – | – | – | induced | induced
CN(c1ccc(C(O)(C(F)(F)F)C(F)(F)F)cc1)S(=O)(=O)c1ccccc1 [B] | – | – | – | – | – | – | – | – | – | – | induced | induced
